# Measured values taken from PubChem BioAssay (NCI).
#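 Five concentrations, 48 hours, 96-well plates. At the GI50, growth is halved. Definition used: TGI = concentration required for complete inhibition of growth.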
# Tests used:
# Assay in all cases: NCI-60 cell line screen, 48 h
# M14 melanoma = test system: M14 melanoma
# 786-0 renal = test system: 786-0 renal
# SK-MEL-28 melanoma = test system: SK-MEL-28 melanoma
# A549 NSCLC = test system: A549 NSCLC
# HT29 colon = test system: HT29 colon
# CCRF-CEM leukemia = test system: CCRF-CEM leukemia
# EKVX NSCLC = test system: EKVX NSCLC
# SNB-19 CNS = test system: SNB-19 CNS
# T-47D breast = test system: T-47D breast
# NCI-H522 lung = test system: NCI-H522 lung
# COLO 205 colon = test system: COLO 205 colon
# DU-145 prostate = test system: DU-145 prostate
# OVCAR-3 ovarian = test system: OVCAR-3 ovarian
# OVCAR-4 ovarian = test system: OVCAR-4 ovarian
# MDA-MB-435 = test system: MDA-MB-435
# KM12 colon = test system: KM12 colon
# MOLT-4 leukemia = test system: MOLT-4 leukemia
# OVCAR-8 ovarian = test system: OVCAR-8 ovarian
# HS 578T breast = test system: HS 578T breast
# UO-31 renal = test system: UO-31 renal
# UACC-257 melanoma = test system: UACC-257 melanoma
# TK-10 renal = test system: TK-10 renal
# NCI-H460 lung = test system: NCI-H460 lung
# RPMI-8226 leukemia = test system: RPMI-8226 leukemia
# CAKI-1 renal = test system: CAKI-1 renal
# SF-539 CNS = test system: SF-539 CNS
# SF-295 CNS = test system: SF-295 CNS
# NCI/ADR-RES ovarian = test system: NCI/ADR-RES ovarian
# PC-3 prostate = test system: PC-3 prostate
# IGROV1 ovarian = test system: IGROV1 ovarian
# NCI-H226 lung = test system: NCI-H226 lung
# MDA-MB-231 breast = test system: MDA-MB-231 breast
# UACC-62 melanoma = test system: UACC-62 melanoma
# K-562 leukemia = test system: K-562 leukemia
# SF-268 CNS = test system: SF-268 CNS
# SNB-75 CNS = test system: SNB-75 CNS
# SR leukemia = test system: SR leukemia
# BT-549 breast = test system: BT-549 breast
# SN12C renal = test system: SN12C renal
# SK-MEL-2 melanoma = test system: SK-MEL-2 melanoma
# HL-60(TB) leukemia = test system: HL-60(TB) leukemia
# SK-MEL-5 melanoma = test system: SK-MEL-5 melanoma
# NCI-H23 lung = test system: NCI-H23 lung
# HOP-62 NSCLC = test system: HOP-62 NSCLC
# SK-OV-3 ovarian = test system: SK-OV-3 ovarian
# MALME-3M melanoma = test system: MALME-3M melanoma
# OVCAR-5 ovarian = test system: OVCAR-5 ovarian
# A498 renal = test system: A498 renal
# MCF7 breast = test system: MCF7 breast
# HCT-116 colon = test system: HCT-116 colon
smiles,measurement,setting,value
O=C(Nc1ccc(Cl)c(Cl)c1)c1ccc(NC2=C(Cl)C(=O)N(Cc3ccccc3)C2=O)cc1,GI50,M14 melanoma,17.1 µM
same,TGI,M14 melanoma,32.9 µM
same,GI50,786-0 renal,7.74 µM
same,TGI,786-0 renal,20.1 µM
same,GI50,SK-MEL-28 melanoma,21.2 µM
same,TGI,SK-MEL-28 melanoma,63.5 µM
same,GI50,A549 NSCLC,11.9 µM
same,TGI,A549 NSCLC,27.3 µM
same,GI50,HT29 colon,16.5 µM
same,TGI,HT29 colon,> 100 µM
same,GI50,CCRF-CEM leukemia,2.3 µM
same,TGI,CCRF-CEM leukemia,7.79 µM
same,GI50,EKVX NSCLC,23.3 µM
same,TGI,EKVX NSCLC,48.6 µM
same,GI50,SNB-19 CNS,52.9 µM
same,TGI,SNB-19 CNS,> 100 µM
same,GI50,T-47D breast,31.6 µM
same,TGI,T-47D breast,92 µM
same,GI50,NCI-H522 lung,13.1 µM
same,TGI,NCI-H522 lung,27.2 µM
same,GI50,COLO 205 colon,20 µM
same,TGI,COLO 205 colon,66.6 µM
same,GI50,DU-145 prostate,4.32 µM
same,TGI,DU-145 prostate,16.6 µM
same,GI50,OVCAR-3 ovarian,2.14 µM
same,TGI,OVCAR-3 ovarian,4.86 µM
same,GI50,OVCAR-4 ovarian,17.2 µM
same,TGI,OVCAR-4 ovarian,42.1 µM
same,GI50,MDA-MB-435,5.62 µM
same,TGI,MDA-MB-435,19.5 µM
same,GI50,KM12 colon,11.5 µM
same,TGI,KM12 colon,27.2 µM
same,GI50,MOLT-4 leukemia,2.18 µM
same,TGI,MOLT-4 leukemia,5.02 µM
same,GI50,OVCAR-8 ovarian,2.6 µM
same,TGI,OVCAR-8 ovarian,4.41 µM
same,GI50,HS 578T breast,5.37 µM
same,TGI,HS 578T breast,27 µM
same,GI50,UO-31 renal,13.1 µM
same,TGI,UO-31 renal,25.8 µM
same,GI50,UACC-257 melanoma,3.67 µM
same,TGI,UACC-257 melanoma,11.9 µM
same,GI50,TK-10 renal,18.8 µM
same,TGI,TK-10 renal,39.2 µM
same,GI50,NCI-H460 lung,9.32 µM
same,TGI,NCI-H460 lung,22.8 µM
same,GI50,RPMI-8226 leukemia,2.02 µM
same,TGI,RPMI-8226 leukemia,4.29 µM
same,GI50,CAKI-1 renal,3 µM
same,TGI,CAKI-1 renal,12.6 µM
same,GI50,SF-539 CNS,16 µM
same,TGI,SF-539 CNS,30.1 µM
same,GI50,SF-295 CNS,13.6 µM
same,TGI,SF-295 CNS,34.7 µM
same,GI50,NCI/ADR-RES ovarian,5.04 µM
same,TGI,NCI/ADR-RES ovarian,17 µM
same,GI50,PC-3 prostate,3.55 µM
same,TGI,PC-3 prostate,13.4 µM
same,GI50,IGROV1 ovarian,2.71 µM
same,TGI,IGROV1 ovarian,8.14 µM
same,GI50,NCI-H226 lung,7.33 µM
same,TGI,NCI-H226 lung,20.8 µM
same,GI50,MDA-MB-231 breast,3.06 µM
same,TGI,MDA-MB-231 breast,9.41 µM
same,GI50,UACC-62 melanoma,4.93 µM
same,TGI,UACC-62 melanoma,17.7 µM
same,GI50,K-562 leukemia,2.34 µM
same,TGI,K-562 leukemia,5.93 µM
same,GI50,SF-268 CNS,8.26 µM
same,TGI,SF-268 CNS,24 µM
same,GI50,SNB-75 CNS,16.1 µM
same,TGI,SNB-75 CNS,56.4 µM
same,GI50,SR leukemia,2.23 µM
same,TGI,SR leukemia,5.27 µM
same,GI50,BT-549 breast,3.29 µM
same,TGI,BT-549 breast,10.6 µM
same,GI50,SN12C renal,10.9 µM
same,TGI,SN12C renal,25.9 µM
same,GI50,SK-MEL-2 melanoma,10.1 µM
same,TGI,SK-MEL-2 melanoma,22.1 µM
same,GI50,HL-60(TB) leukemia,2.82 µM
same,TGI,HL-60(TB) leukemia,7.68 µM
same,GI50,SK-MEL-5 melanoma,5.02 µM
same,TGI,SK-MEL-5 melanoma,17.9 µM
same,GI50,NCI-H23 lung,14.2 µM
same,TGI,NCI-H23 lung,27.4 µM
same,GI50,HOP-62 NSCLC,17.4 µM
same,TGI,HOP-62 NSCLC,31.3 µM
same,GI50,SK-OV-3 ovarian,21.5 µM
same,TGI,SK-OV-3 ovarian,44 µM
same,GI50,MALME-3M melanoma,11.2 µM
same,TGI,MALME-3M melanoma,24.8 µM
same,GI50,OVCAR-5 ovarian,2.95 µM
same,TGI,OVCAR-5 ovarian,8.91 µM
same,GI50,A498 renal,17.6 µM
same,TGI,A498 renal,36.8 µM
same,GI50,MCF7 breast,2.1 µM
same,TGI,MCF7 breast,4.82 µM
same,GI50,HCT-116 colon,1.94 µM
same,TGI,HCT-116 colon,4.25 µM
